Data reported in patent publication US20230110113A1, “FGFR TYROSINE KINASE INHIBITORS FOR THE TREATMENT OF HIGH-RISK NON-MUSCLE INVASIVE BLADDER CANCER” (Janssen Pharmaceutica NV, priority 2020, published 2023).

Assays:
[1] = system: UM-UC-1 bladder cancer cell line (WT); settings: MTT
[2] = system: T24 bladder cancer cell line (WT); settings: T24, FGFR3 WT
[3] = system: EJ28 bladder cancer cell line (FGFR status unknown); settings: EJ28, FGFR3 status unknown

COc1cc(OC)cc(N(CCNC(C)C)c2ccc3ncc(-c4cnn(C)c4)nc3c2)c1 [erdafitinib, N-(3,5-dimethoxyphenyl)-N′-(1-methylethyl)-N-[3-(1-methyl-1H-pyrazol-4-yl)quinoxalin-6-yl]ethane-1,2-diamine]
Cell viability max effect [1]: 80%
Sensitivity of cell line to erdafitinib (in words) [2]: not sensitive
Sensitivity of cell line to erdafitinib (in words) [3]: not sensitive
